Results on 4 compounds are retold here after patent EP0058015A2, “Treatment of infections” (BEECHAM GROUP PLC, priority 1981, dated 1982).

Where “and” joins values, the source holds several entries; their conditions need not be identical. Equal values may be shown once.

One experiment relates to S. aureus. In words: Experimental mouse mastitis: intramammary antibiotic therapy 4 h after S. aureus inoculation, viable bacterial count per gland 18 h later. Conditions: for 22 h bacterial counts (log10 cfu/gland) (18 h after treatment), x̄: group mean of five mice; for 22 h bacterial counts (log10 cfu/gland) (18 h after treatment): individual mice, intramammary, 4 h after infection. It is filed as in vivo. How it is done: Lactating mice of the Compton white strain were used 4-7 days after parturition. The mice were anaesthetised with ether and c.10^6 cfu S. aureus were inoculated via the teat into the fourth mammary gland on each side (R4 and L4) by the method described by Anderson [Zentralblatt fur Bakteriologie, Parasitenkunde, Infektionskrankheiten und Hygiene (Abteilung 1) Suppl. 5 783-790].
4 Hours later, the mice were divided into four groups and each group received inoculations into R4 and L4 of either cloxacillin, rifampicin, cloxacillin and rifampicin, or saline. After a further 18 hours, the mice were killed. From each mouse, L4 was removed and homogenised in a Griffith's tube with 5 ml sterile saline, and a total viable bacterial count was determined using ox blood agar plates pretreated with S-lactamase.
The log10 bacterial viable counts per gland found after antibiotic (or saline) therapy in each experiment were examined by analysis of variance. Differences between each pair of treatments were then compared for significance in Student's 't' tests, using the value of the.mean square for error obtained in the analysis of variance. Antibiotic residues. Each gland homogenate was also assayed for antibiotic content using an agar well diffusion method with penassay seed agar (Antibiotic medium 1, Difco Labs., Detroit) and Sarcina lutea as the test organism.
Similar treatment to that described above was carried out on mice, in which cloxacillin was replaced by flucloxacillin.
Antibiotics inoculated into mammary glands 4 h after infection at a dose of 1 mg cloxacillin or […] rifampici per gland, or both.

The test system of experiment [1] is staphylococcal mastitis infections. In words: Bovine mastitis: intramammary infusion in lactating cows, clinical and bacteriological response at 4 and 7 days after treatment. The experiment is classed as in vivo, staphylococci. How it is done: Twenty one staphylococcal mastitis infections were treated as follows:
Ten infections treated with 3 x 12 hr infusions of a combination of 300 mg Rifampicin and 200 mg Cloxacillin.
Eleven infections treated with 3 x 12 hr infusions of 200 mg Cloxacillin.
The treatment was carried out by intramammary infusion in lactating cows, and the clinical and bacteriological response recorded at 4 and 7 days after treatment.

A further experiment concerns bovine mastitis. As to conditions: recent reports (Poutrel 1978; Postle et al. 1979); cited from earlier work.
Where [2] appears, read: lactating cows, 3 x 12 hr infusions of 300 mg Rifampicin and 200 mg Cloxacillin, or of 200 mg Cloxacillin.

On to `Cc1onc(-c2ccccc2Cl)c1C(=O)N[C@@H]1C(=O)N2[C@@H]1SC(C)(C)[C@@H]2C(=O)O` [Cloxacillin, cloxacillin], for which the “mean viable bacterial counts per gland, comparison between groups” value with S. aureus (M60 S. aureus, cloxacillin/rifampicin experiment, 1 mg cloxacillin or rifampici per gland, or both, 18 h after therapy, P<0.01) is “reduced bacterial counts to a significantly greater extend than rifampicin treatment”. Moreover, in experiment [1] (four days after treatment, eight out of eleven raised before), the “quarters with raised cell counts” value is given as “five”. Besides, the quarters yielding staphylococci result in experiment [1] (four days after treatment, eleven infections treated) is listed as “five”; in experiment [1] (seven days after treatment, combination ten quarters, cloxacillin alone eleven), “six”. For the same compound, in experiment [1] (setting [2]), the “Proportion of quarters cured four days after treatment” value is given as 6 out of 11. In addition, the “Proportion of quarters cured seven days after treatment” value in experiment [1] (setting [2]) is 5 out of 11.

On to `CO[C@H]1/C=C/O[C@@]2(C)Oc3c(C)c(O)c4c(O)c(c(/C=N/N5CCN(C)CC5)c(O)c4c3C2=O)NC(=O)/C(C)=C\C=C\[C@H](C)[C@H](O)[C@@H](C)[C@@H](O)[C@@H](C)[C@H](OC(C)=O)[C@@H]1C` [Rifampicin, rifampicin], for which, in the experiment with S. aureus (Rifampicin 25 µg per gland), the “22 h bacterial counts (log10 cfu/gland) (18 h after treatment), x̄” value is listed as 4.837 log10 cfu/gland; the “22 h bacterial counts (log10 cfu/gland) (18 h after treatment)” value was 5.694 log10 cfu/gland and 4.581 log10 cfu/gland and 5.536 log10 cfu/gland and 4.258 log10 cfu/gland and 4.118 log10 cfu/gland.

`Cc1onc(-c2c(F)cccc2Cl)c1C(=O)N[C@@H]1C(=O)N2[C@@H]1SC(C)(C)[C@@H]2C(=O)O` [Fluclox, flucloxacillin]: in the experiment with S. aureus (Fluclox 1 mg per gland), the “22 h bacterial counts (log10 cfu/gland) (18 h after treatment), x̄” value was determined as 4.403 log10 cfu/gland; the “22 h bacterial counts (log10 cfu/gland) (18 h after treatment)” value was 4.243 log10 cfu/gland and 4.796 log10 cfu/gland and 4.158 log10 cfu/gland and 4.340 log10 cfu/gland and 4.477 log10 cfu/gland.

Regarding `CO[C@H]1/C=C/O[C@@]2(C)Oc3c(C)c([O-])c4c(O)c(cc(O)c4c3C2=O)NC(=O)/C(C)=C\C=C\[C@H](C)[C@H](O)[C@@H](C)[C@@H](O)[C@@H](C)[C@H](OC(C)=O)[C@@H]1C.[Na+]` [rifamycin-S.V.], the “effectiveness of therapy in bovine mastitis” value with bovine mastitis is listed as “less effective than penicillin based preparations”.
